Drawing on patent US6867185B2 (Bristol-Myers Squibb Company, priority 2001, dated 2005), this text covers EC50 and IC50 for one compound.

Each structure is given as a SMILES string. Where a name gives a salt, the structure may show the parent alone. Read-outs that look alike come from different tables or passages of the source.

Test [1] deals with HCV replicon in Huh7 cells. In words: HCV replicon cell-based assay (replicon FRET assay). Also on record: species or system HCV strain 1B. The following applies: Hepatitis C virus, Huh-7, HCV replicon cell assay. The procedure, abridged:
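Huh7 cells carrying a genotype 1b subgenomic replicon (neo, NS3–NS5B) were treated with compound for 4 days at 37 °C in 0.5% DMSO final. Lysates with 10 μM RET S1 FRET peptide and 150 mM NaCl were read kinetically at 340/490 nm over 21 cycles. EC50 was derived as for the enzyme IC50.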

Test [2] concerns the target T1, human neutrophil elastase (HNE) (Homo sapiens, UniProt P08246).
T1 construct: purchased Sigma
T1 sequence (P08246 30-267): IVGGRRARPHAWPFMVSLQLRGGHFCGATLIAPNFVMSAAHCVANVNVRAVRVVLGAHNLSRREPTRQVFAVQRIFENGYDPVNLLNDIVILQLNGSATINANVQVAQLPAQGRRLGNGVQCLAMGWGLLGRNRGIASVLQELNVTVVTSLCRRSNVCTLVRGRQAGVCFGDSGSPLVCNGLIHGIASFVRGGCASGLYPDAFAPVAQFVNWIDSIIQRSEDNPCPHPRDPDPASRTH
Briefly: Specificity assay, human neutrophil elastase. The test is classed as biochemical. The settings on record: 2 hr pre-incubation, read-out: HLE. The method, then:
(§1) The specificities of compounds of the present invention were determined against a variety of serine proteases: human neutrophil elastase (HNE), porcine pancreatic elastase (PPE) and human pancreatic chymotrypsin and one cysteine protease: human liver cathepsin B. In all cases a 96-well plate format protocol using colorimetric p-nitroaniline (pNA) substrate specific for each enzyme was used as described previously (U.S. Pat. No. 6,323,180) with some modifications to the serine protease assays. All enzymes were purchased from Sigma while the substrates were from Bachem.
(§2) Each assay included a 2 hr enzyme-inhibitor pre-incubation at RT followed by addition of substrate and hydrolysis to ˜30% conversion as measured on a Spectramax Pro microplate reader. Compound concentrations varied from 100 to 0.4 μM depending on their potency. […]
(§3) The percentage of inhibition was calculated using the formula: [1−((UVinh−UVblank)/(UVctl−UVblank))]×100 […]

The target in test [3] is T2, porcine pancreatic elastase (PPE) (Sus scrofa, UniProt P00772).
T2 construct: purchased Sigma
T2 sequence (P00772 27-266): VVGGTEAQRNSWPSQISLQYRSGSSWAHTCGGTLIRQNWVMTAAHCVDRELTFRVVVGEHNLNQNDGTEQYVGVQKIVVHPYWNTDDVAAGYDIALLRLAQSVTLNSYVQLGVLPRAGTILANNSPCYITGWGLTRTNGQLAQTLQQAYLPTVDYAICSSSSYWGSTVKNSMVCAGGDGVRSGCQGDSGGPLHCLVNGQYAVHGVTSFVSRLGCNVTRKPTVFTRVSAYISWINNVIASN
Briefly: Specificity assay, porcine pancreatic elastase. The test is classed as biochemical. The following applies: 2 hr pre-incubation. How it is done:
as §1, §2, §3

One may read the EC50 as the concentration that produces a half-maximal response. In the case of `COc1ccc2c(O[C@@H]3C[C@H]4C(=O)N[C@]5(C(=O)NS(=O)(=O)C6CC6)CC5/C=C/CCCC[C@H](N)C(=O)N4C3)cc(-c3ccccc3)nc2c1` (stereo partly drawn) [Compound 6, (1S,4R,6S,13S,17R)-7-trans-Cyclopropanesulfonic acid [13-amino-17-(7-methoxy-2-phenylquinolin-4-yloxy)-2,14-dioxo-3,15-diazatricyclo[13.3.0.0^4,6]octadec-7-ene-4-carbonyl]amide dihydrochloride], the figures for the EC50 in test [1] (EC50 ranges) and in test [1] (read-out: EC50) were below 0.5 µM and around 0.124 µM, respectively. The results for the IC50 in test [2] and in test [3] were 30 µM and above 100 µM, respectively.
